Drawing on patent US6943183B2 (Pfizer Inc, priority 2000, dated 2005), this text covers IC50 for 31 molecules.

This test has as its target T1, SF9 affinity purified rat FPT (Rattus norvegicus, UniProt Q02293+Q04631).
T1 construct: made in house; host or cells: Sf9 insect cells
In words: PFT (FPT) inhibitory activity assay, radiolabeled farnesyl pyrophosphate and biotinyl peptide, streptavidin beads. The note with it: HEPES buffer pH 7.4, 30° C., 30 minutes; read-out: FTase IC50. Format: biochemical. A digest of the protocol: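 Rat FPT expressed in SF9 cells was incubated 30 minutes at 30° C. with compound (in 10% DMSO), radiolabeled farnesyl pyrophosphate and biotinylated peptide. Buffer: HEPES pH 7.4, ZnCl2 20 μM, MgCl2 and DTT 5 mM each, 0.1% PEG 8000, 5 mM potassium phosphate (also run without phosphate). Product captured on streptavidin beads in magnesium acetate/H3PO4 stop buffer.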
`C[C@@H](O)CNC(=O)c1ccccc1S(=O)(=O)Cc1c(O[C@H](Cn2ccnc2)c2ccccc2)ccc2c1CCCC2=O` [Compound 202, N-[(2R)-2-Hydroxypropyl]-2-{[(2-{[(1S)-2-(1H-imidazol-1-yl)-1-phenylethyl]oxy}-5-oxo-5,6,7,8-tetrahydro-1-naphthalenyl)methyl]sulfonyl}benzamide]: the half-inhibitory concentration (IC50) (as a rule, the point on the concentration scale where inhibition reaches its midpoint) turned out to be 0.2 nM. The same measure for `CNC(=O)c1cccc(S(=O)(=O)Cc2c(O[C@H](Cn3ccnc3)c3ccccc3)ccc3c2CCCC3=O)c1` [Compound 190, 3-{[(2-{[(1S)-2-(1H-imidazol-1-yl)-1-phenylethyl]oxy}-5-oxo-5,6,7,8-tetrahydro-1-naphthalenyl)methyl]sulfonyl}-N-methylbenzamide]: 8 nM; for `CN(C)CCNC(=O)c1ccc(S(=O)(=O)Cc2c(O[C@H](Cn3ccnc3)c3ccccc3)ccc3c2CCCC3=O)cc1` [Compound 181, N-[2-(Dimethylamino)ethyl]-4-{[(2-{[(1S)-2-(1H-imidazol-1-yl)-1-phenylethyl]oxy}-5-oxo-5,6,7,8-tetrahydro-1-naphthalenyl)methyl]sulfonyl}benzamide]: 20 nM; for `COC(=O)c1cccc(OCc2c(O[C@H](Cn3ccnc3)c3ccccc3)ccc3c2CCCC3=O)c1` [Compound 88, Methyl 3-{[2-((1S)-2-imidazolyl-1-phenylethoxy)-5-oxo-6,7,8-trihydronaphthyl]methoxy}benzoate]: 7 nM. `COc1ccc(S(=O)(=O)NCc2c(O[C@H](Cn3ccnc3)c3ccccc3)ccc3c2CCCC3=O)cc1` [Compound 42a, N-[2-((S)-2-Imidazol-1-yl-1-phenyl-ethoxy)-5-oxo-5,6,7,8-tetrahydro-naphthalen-1-ylmethyl]-4-methoxy-benzenesulfonamide]: the IC50 was 1.1 nM. The result for `CN(C)CCNC(=O)c1cccc(S(=O)(=O)Cc2c(O[C@H](Cn3ccnc3)c3ccccc3)ccc3c2CCCC3=O)c1` [Compound 182, N-[2-(Dimethylamino)ethyl]-3-{[(2-{[(1S)-2-(1H-imidazol-1-yl)-1-phenylethyl]oxy}-5-oxo-5,6,7,8-tetrahydro-1-naphthalenyl)methyl]sulfonyl}benzamide] reads 10 nM; that for `O=C1CCCc2c1ccc(O[C@H](Cn1ccnc1)c1ccccc1)c2CCc1ccsc1` [Compound 44a, 6-((S)-2-Imidazol-1-yl-1-phenyl-ethoxy)-5-(2-thiophen-3-yl-ethyl)-3,4-dihydro-2H-naphthalen-1-one], 0.87 nM; that for `O=C1CCCc2c1ccc(O[C@H](Cn1ccnc1)c1ccccc1)c2COc1ccc(Oc2ccccc2)cc1` [Compound 97], 6 nM. `O=C(NC(CO)CO)c1ccc(SCc2c(O[C@H](Cn3ccnc3)c3ccccc3)ccc3c2CCCC3=O)cc1` [Compound 233, N-[2-Hydroxy-1-(hydroxymethyl)ethyl]-4-{[(2-{[(1S)-2-(1H-imidazol-1-yl)-1-phenylethyl]oxy}-5-oxo-5,6,7,8-tetrahydro-1-naphthalenyl)methyl]sulfanyl}benzamide]: the 50% inhibitory concentration (IC50) is 0.45 nM.

Take `COC(=O)c1ccc(CCc2c(O[C@H](Cn3ccnc3)c3ccccc3)ccc3c2CCCC3=O)cc1` [Compound 28, Methyl 4-{2-[2-((1S)-2-imidazolyl-1-phenylethoxy)-5-oxo-6,7,8-trihydronaphthyl]ethyl}benzoate]: the IC50 turned out to be 13 nM. Turning to `CCOC(=O)CCNC(=O)c1ccccc1SCc1c(O[C@H](Cn2ccnc2)c2ccccc2)ccc2c1CCCC2=O` [Compound 187, Ethyl 3-[(2-{[(2-{[(1S)-2-(1H-Imidazol-1-yl)-1-phenylethyl]oxy}-5-oxo-5,6,7,8-tetrahydro-1-naphthalenyl)methyl]sulfanyl}benzoyl)amino]propanoate], the IC50 stood at 7 nM. The same measure for `C[C@@H](O)CNC(=O)c1cccc(S(=O)(=O)Cc2c(O[C@H](Cn3ccnc3)c3ccccc3)ccc3c2CCCC3=O)c1` [Compound 204, N-[(2R)-2-Hydroxypropyl]-3-{[(2-{[(1S)-2-(1H-imidazol-1-yl)-1-phenylethyl]oxy}-5-oxo-5,6,7,8-tetrahydro-1-naphthalenyl)methyl]sulfonyl}benzamide]: 0.65 nM; for `COc1cc(OC)cc(OCc2c(O[C@H](Cn3ccnc3)c3ccccc3)ccc3c2CCCC3=O)c1` [Compound 71, 6-((1S)-2-imidazolyl-1-phenylethoxy)-5-[(3,5-dimethoxyphenoxy)methyl]-2,3,4-trihydronaphthalen-1-one]: 4 nM; for `C=CCNC(=O)c1cccc(S(=O)(=O)Cc2c(O[C@H](Cn3ccnc3)c3ccccc3)ccc3c2CCCC3=O)c1` [Compound 205, N-Allyl-3-{[(2-{[(1S)-2-(1H-imidazol-1-yl)-1-phenylethyl]oxy}-5-oxo-5,6,7,8-tetrahydro-1-naphthalenyl)methyl]sulfonyl}benzamide]: 0.2 nM. The result for `O=C(NC1CC1)c1cccc(S(=O)(=O)Cc2c(O[C@H](Cn3ccnc3)c3ccccc3)ccc3c2CCCC3=O)c1` [Compound 224, N-Cyclopropyl-3-{[(2-{[(1S)-2-(1H-imidazol-1-yl)-1-phenylethyl]oxy}-5-oxo-5,6,7,8-tetrahydro-1-naphthalenyl)methyl]sulfonyl}benzamide] reads 0.2 nM. The result for `CCOC(=O)CCNC(=O)c1ccccc1S(=O)(=O)Cc1c(O[C@H](Cn2ccnc2)c2ccccc2)ccc2c1CCCC2=O` [Compound 183, Ethyl 3-[(2-{[(2-{[(1S)-2-(1H-Imidazol-1-yl)-1-phenylethyl]oxy}-5-oxo-5,6,7,8-tetrahydro-1-naphthalenyl)methyl]sulfonyl}benzoyl)amino]propanoate] reads 7 nM; that for `O=C(O)c1cccc(SCc2c(O[C@H](Cn3ccnc3)c3ccccc3)ccc3c2CCCC3=O)c1` [Compound 163, 3-{[(2-{[(1S)-2-(1H-Imidazol-1-yl)-1-phenylethyl]oxy}-5-oxo-5,6,7,8-tetrahydro-1-naphthalenyl)methyl]sulfanyl}benzoic Acid], 5 nM; that for `O=C(Nc1c(O[C@H](Cn2ccnc2)c2ccccc2)ccc2c1CCCC2=O)c1cnccn1` [Compound 40c], 1.2 nM. As for `C=C(C)Cc1c(O[C@H](Cn2ccnc2)c2ccccc2)ccc2c1CCCC2=O` [Compound 54, 6-((1S)-2-Imidazolyl-1-phenylethoxy)-5-(2-methylprop-2-enyl)-2,3,4-trihydronaphthalen-1-one], the IC50 is 5 nM. Take `O=C1CCCc2c1ccc(OC(Cn1ccnc1)c1nccs1)c2CS(=O)(=O)c1ccccn1` (stereo not shown) [Compound 63q, 6-(2-Imidazol-1-yl-1-thiazol-2-yl-ethoxy)-5-(pyridine-2-sulfonylmethyl)-3,4-dihydro-2H-naphthalen-1-one]: the half-inhibitory concentration (IC50) was 0.5 nM. The result for `CCCCC(Cn1ccnc1)Oc1ccc2c(c1CS(=O)(=O)c1ccccc1)CCCC2=O` (stereo not shown) [Compound 63m, 6-{[1-(1H-Imidazol-ylmethyl)pentyl]oxy}-5-[(phenylsulfonyl)methyl]-3,4-dihydro-1(2H)-naphthalenone] reads 1 nM; that for `O=C(NCCO)c1ccccc1S(=O)(=O)Cc1c(O[C@H](Cn2ccnc2)c2ccccc2)ccc2c1CCCC2=O` [Compound 165, N-(2-Hydroxyethyl)-2-{[(2-{[(1S)-2-(1H-imidazol-1-yl)-1-phenylethyl]oxy}-5-oxo-5,6,7,8-tetrahydro-1-naphthalenyl)methyl]sulfonyl}benzamide], 6.4 nM; that for `O=C1CCCc2c1ccc(O[C@H](Cn1ccnc1)c1ccccc1)c2COC1CCCC1` [Compound 17], 0.3 nM. The same measure for `O=C1CCCc2c1ccc(O[C@H](Cn1ccnc1)c1ccccc1)c2NS(=O)(=O)Cc1ccccc1` [Compound 39, N-[2-((S)-2-Imidazol-1-yl-1-phenyl-ethoxy)-5-oxo-5,6,7,8-tetrahydro-naphthalen-1-yl]-1-phenyl-methanesulfonamide]: 1 nM; for `CNC(=O)c1ccc(SCc2c(O[C@H](Cn3ccnc3)c3ccccc3)ccc3c2CCCC3=O)cc1` [Compound 191, 4-{[(2-{[(1S)-2-(1H-Imidazol-1-yl)-1-phenylethyl]oxy}-5-oxo-5,6,7,8-tetrahydro-1-naphthalenyl)methyl]sulfanyl}-N-methylbenzamide]: 2 nM; for `O=C(NCc1c(O[C@H](Cn2ccnc2)c2ccccc2)ccc2c1CCCC2=O)c1ccccn1` [Compound 42h, Pyridine-2-carboxylic acid [2-((S)-2-imidazol-1-yl-1-phenyl-ethoxy)-5-oxo-5,6,7,8-tetrahydro-naphthalen-1-ylmethyl]-amide]: 8 nM. The result for `C=CCc1c(OC(Cn2ccnc2)c2c(Cl)cccc2Cl)ccc2c1CCCC2=O` (racemic) [Compound 60, (±)-6-[0-(2,6-Dichlorophenyl)-2-imidazolylethoxy]-5-prop-2-enyl-2,3,4-trihydronaphthalen-1-one, Trifluoroacetic Acid] reads 29 nM; that for `O=C1CCCc2c1ccc(OC(Cn1ccnc1)c1cccs1)c2CS(=O)(=O)c1ccccn1` (stereo not shown) [Compound 63p, 6-(2-Imidazol-yl-1-thiophen-2-yl-ethoxy)-5-(pyridine-2-sulfonylmethyl)-3,4-dihydro-2H-naphthalen-1-one], 0.55 nM; that for `O=C(O)CCNC(=O)c1ccccc1S(=O)(=O)Cc1c(O[C@H](Cn2ccnc2)c2ccccc2)ccc2c1CCCC2=O` [Compound 167, N-2-{[(2-{[(1S)-2-(1H-Imidazol-1-yl)-1-phenylethyl]oxy}-5-oxo-5,6,7,8-tetrahydro-1-naphthalenyl)methyl]sulfonyl}benzoyl-β-alanine], 7 nM. For the molecule `O=C1CCCc2c1ccc(O[C@H](Cn1ccnc1)c1ccccc1)c2-c1ccc2c(c1)OCO2` [Compound 21, 5-(2H-Benzo[d]-1,3-dioxolan-5-yl)-6-((1S)-2-imidazolyl-1-phenylethoxy)-2,3,4-trihydronaphthalen-1-one], the IC50 is 8 nM. The same measure for `CCOc1ccc(OCc2c(O[C@H](Cn3ccnc3)c3ccccc3)ccc3c2CCCC3=O)cc1` [Compound 79]: 0.8 nM.
